Structures can show the parent of a compound that is named as a salt. Where two headings read alike, the source gives them in different places.
Experiments:
hTAS2R14 = molecular target: T1, hTAS2R14 (Homo sapiens, UniProt Q9NYV8)
T1 sequence (Q9NYV8 1-317): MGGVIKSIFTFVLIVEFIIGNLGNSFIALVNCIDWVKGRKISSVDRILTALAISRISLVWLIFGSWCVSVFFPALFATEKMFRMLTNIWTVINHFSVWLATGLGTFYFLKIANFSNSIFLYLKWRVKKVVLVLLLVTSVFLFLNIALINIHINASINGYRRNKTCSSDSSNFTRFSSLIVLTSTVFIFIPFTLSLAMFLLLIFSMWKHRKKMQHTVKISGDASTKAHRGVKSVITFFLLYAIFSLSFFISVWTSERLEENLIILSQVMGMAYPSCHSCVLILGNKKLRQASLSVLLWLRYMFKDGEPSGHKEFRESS

hTAS2R4 = molecular target: T2, hTAS2R4 (Homo sapiens, UniProt Q9NYW5); details: denatonium at high doses; Chandrashekar et al. 2000; cited from earlier work
T2 sequence (Q9NYW5 1-299): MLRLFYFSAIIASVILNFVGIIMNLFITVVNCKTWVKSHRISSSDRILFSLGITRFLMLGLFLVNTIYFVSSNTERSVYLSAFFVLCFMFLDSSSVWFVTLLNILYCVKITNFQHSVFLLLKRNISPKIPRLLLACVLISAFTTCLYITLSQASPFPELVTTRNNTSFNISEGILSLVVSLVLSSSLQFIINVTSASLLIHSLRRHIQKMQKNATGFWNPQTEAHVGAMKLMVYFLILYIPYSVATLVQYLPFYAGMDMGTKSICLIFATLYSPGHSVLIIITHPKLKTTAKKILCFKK

mTAS2R5 = molecular target: T3, mTAS2R5 (Mus musculus, UniProt Q9JKT4); details: Chandrashekar et al. 2000; cited from earlier work
T3 sequence (Q9JKT4 1-300): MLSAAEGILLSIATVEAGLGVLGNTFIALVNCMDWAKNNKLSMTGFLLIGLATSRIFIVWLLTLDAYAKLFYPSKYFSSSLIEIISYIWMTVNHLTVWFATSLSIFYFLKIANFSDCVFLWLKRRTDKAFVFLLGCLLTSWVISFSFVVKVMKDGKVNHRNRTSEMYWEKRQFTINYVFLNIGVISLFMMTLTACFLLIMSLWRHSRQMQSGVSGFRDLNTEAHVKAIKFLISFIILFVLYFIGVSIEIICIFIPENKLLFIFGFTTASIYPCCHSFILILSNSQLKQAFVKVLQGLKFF

rTAS2R9 = molecular target: T4, rTAS2R9 (Rattus norvegicus, UniProt Q9JKT5); details: Bufe et al. 2002; cited from earlier work
T4 sequence (Q9JKT5 1-309): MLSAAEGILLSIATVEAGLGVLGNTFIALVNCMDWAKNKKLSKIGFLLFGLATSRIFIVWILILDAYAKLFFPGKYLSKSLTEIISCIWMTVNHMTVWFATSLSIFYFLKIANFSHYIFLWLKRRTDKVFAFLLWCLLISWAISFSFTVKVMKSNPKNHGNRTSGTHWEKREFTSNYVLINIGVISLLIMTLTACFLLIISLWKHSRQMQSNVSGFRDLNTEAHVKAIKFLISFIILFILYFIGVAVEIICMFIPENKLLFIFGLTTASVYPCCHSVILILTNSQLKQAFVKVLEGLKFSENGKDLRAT

mTAS2R8 = molecular target: T5, mTAS2R8 (Mus musculus, UniProt Q9JKT3); details: denatonium at high doses; Chandrashekar et al. 2000; cited from earlier work
T5 sequence (Q9JKT3 1-297): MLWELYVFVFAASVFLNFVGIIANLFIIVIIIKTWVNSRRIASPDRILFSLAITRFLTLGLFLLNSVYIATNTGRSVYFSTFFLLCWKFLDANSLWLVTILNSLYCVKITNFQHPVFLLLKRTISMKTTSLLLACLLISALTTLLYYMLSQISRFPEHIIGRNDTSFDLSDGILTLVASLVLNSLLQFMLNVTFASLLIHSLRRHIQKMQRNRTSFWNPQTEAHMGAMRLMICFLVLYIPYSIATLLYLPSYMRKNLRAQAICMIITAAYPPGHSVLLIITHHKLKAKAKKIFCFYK

[1] = increase of intracellular calcium (fluorescence) in hTAS2R14 transfected cells, traces only shown as drawings, Table 1 A

Molecule: CN1CCCC1c1cccnc1 (single isomer, unassigned; (-)) [(−)-nicotine]
- response (hTAS2R14; conc 10 μM): n.r.

Molecule: C1CCN2C[C@H]3CC(CN4CCCC[C@@H]34)[C@H]2C1 (single isomer, unassigned; (-)) [(−)-sparteine]
- response (hTAS2R14): n.r.

Molecule: O=Cc1cccc2cccc(C(=O)O)c12 [1,8-naphthaldehydic acid]
- activation of hTAS2R14 (agonist) (hTAS2R14; [1]): agonist

Molecule: O=C(O)c1cccc2ccccc12 [1-naphthoic acid]
- activation of hTAS2R14 (agonist) (hTAS2R14; [1]): agonist

Molecule: O=[N+]([O-])c1cccc2ccccc12 [1-nitronaphthalene]
- activation of hTAS2R14 (agonist) (hTAS2R14): agonist

Molecule: CCCc1cc(=O)[nH]c(=S)[nH]1 [6-propyl-2-thiouracil (PROP), 6-propyl-2-thiouracil]
- response (hTAS2R14; conc 100 μM): n.r.
- receptor response (hTAS2R4): to a lesser extend

Molecule: c1ccc2c(c1)CCc1ccccc1-2 [9,10-dihydrophenanthrene]
- response (hTAS2R14; conc 5 μM): n.r.

Molecule: N[C@H](Cc1ccccc1)C(=O)O [D-phenylalanine]
- response (hTAS2R14; conc 10000 μM): n.r.

Molecule: N[C@@H](Cc1ccccc1)C(=O)O [L-phenylalanine]
- response (hTAS2R14; conc 10000 μM): n.r.

Molecule: CCN(CCCc1ccccc1)CCCc1ccccc1.O=C(O)CC(O)(CC(=O)O)C(=O)O [alverine citrate salt]
- response (hTAS2R14; conc 50 μM): n.r.

Molecule: Cc1cc(=O)n(-c2ccccc2)n1C [antipyrine]
- response (hTAS2R14): n.r.

Molecule: CN1C2CCC1CC(OC(=O)C(CO)c1ccccc1)C2 (stereo not drawn) [atropine]
- response (hTAS2R14): n.r.

Molecule: O=C(c1ccccc1)C(O)c1ccccc1 (stereo not drawn) [benzoin]
- response (hTAS2R14): n.r.

Molecule: O=C(O)/C=C/c1ccc(O)c(O)c1 [caffeic acid]
- response (hTAS2R14; conc 30 μM): n.r.

Molecule: Cn1c(=O)c2c(ncn2C)n(C)c1=O [caffeine]
- response (hTAS2R14; conc 3000 μM): n.r.

Molecule: CCCC(C)(COC(N)=O)COC(=O)NC(C)C (stereo not drawn) [carisoprodol]
- response (hTAS2R14): n.r.

Molecule: O=C(N[C@H](CO)[C@H](O)c1ccc([N+](=O)[O-])cc1)C(Cl)Cl [chloramphenicol]
- response (hTAS2R14; conc 30 μM): n.r.

Molecule: COc1cc2c(c(OC)c1OC)-c1ccc(OC)c(=O)cc1[C@@H](NC(C)=O)CC2 [colchicine]
- response (hTAS2R14): n.r.

Molecule: O=C([O-])c1cc(=O)c2c(OCC(O)COc3cccc4oc(C(=O)[O-])cc(=O)c34)cccc2o1.[Na+].[Na+] [cromolyn sodium salt]
- response (hTAS2R14; conc 5000 μM): n.r.

Molecule: C[C@@H]1C[C@@H]([C@H](O)CC2CC(=O)NC(=O)C2)C(=O)[C@@H](C)C1 [cycloheximide]
- response (hTAS2R14): n.r.
- receptor response (mTAS2R5): respond
- receptor response (rTAS2R9): respond

Molecule: CC[N+](CC)(CC(=O)Nc1c(C)cccc1C)Cc1ccccc1 [denatonium]
- receptor response (hTAS2R4): respond
- receptor response (mTAS2R8): respond

Molecule: CC(=O)OC1C[C@H]2[C@H](C)C(=O)O[C@@H]2/C=C(\C)CC/C=C/1C (stereo partly drawn) [herbolide A]
- activation of hTAS2R14 (agonist) (hTAS2R14; [1]): agonist

Molecule: C=C1C(OC(C)=O)CC/C(C)=C/[C@H]2OC(=O)[C@@H](C)[C@@H]2CC1OC(C)=O (stereo partly drawn) [herbolide D acetate]
- activation of hTAS2R14 (agonist) (hTAS2R14; [1]): agonist

Molecule: C=C1C(=O)OC2C3O[C@]3(C)CC/C=C(\C)CC(O)[C@@H]12 (stereo partly drawn) [hydroxy-8α-parthenolide]
- activation of hTAS2R14 (agonist) (hTAS2R14; [1]): agonist

Molecule: C=C1C(=O)O[C@H]2[C@H]1CC/C(C)=C/CC[C@@]1(C)O[C@@H]21 [parthenolide]
- activation of hTAS2R14 (agonist) (hTAS2R14; [1]): agonist

Molecule: NC(=S)Nc1ccccc1 [phenylthiocarbamide (PTC), phenylthiocarbamide]
- response (hTAS2R14): n.r.

Molecule: CC(C)(O)[C@@H]1[C@H]2OC(=O)[C@@H]1[C@]1(O)C[C@H]3O[C@]34C(=O)O[C@H]2[C@]14C [picrotin]
- activation of hTAS2R14 (agonist) (hTAS2R14): agonist

Molecule: C=C(C)[C@@H]1[C@H]2OC(=O)[C@@H]1[C@]1(O)C[C@H]3O[C@]34C(=O)O[C@H]2[C@]14C [picrotoxinin]
- activation of hTAS2R14 (agonist) (hTAS2R14): agonist

Molecule: O=C(O)c1ccc2c(c1)OCO2 [piperonylic acid]
- activation of hTAS2R14 (agonist) (hTAS2R14): agonist

Molecule: CC1CCC2[C@@H]1C1CC(O)[C@H](C)C1CC[C@@]2(C)O (stereo partly drawn) [pseudo-artabsine]
- activation of hTAS2R14 (agonist) (hTAS2R14; [1]): agonist

Molecule: C=C[C@H]1CN2CC[C@H]1C[C@H]2[C@H](O)c1ccnc2ccc(OC)cc12 [quinine sulfate dihydrate]
- response (hTAS2R14; conc 50 μM): n.r.

Molecule: O=C([O-])c1ccccc1.[Na+] [sodium benzoate]
- activation of hTAS2R14 (agonist) (hTAS2R14): agonist

Molecule: (−)-α-thujone
- activation of hTAS2R14 (agonist) (hTAS2R14): agonist

Molecule: ouabain
- response (hTAS2R14): n.r.

Molecule: strychnine nitrate
- response (hTAS2R14): n.r.

Source: patent publication US8158372B2, “Agonists of a bitter taste receptor and uses thereof” (Deutsches Institut für Ernährungsforschung Potsdam-Rehbrücke, priority 2004, dated 2012)
